Laboratory results reported in ChEMBL document CHEMBL1201862, “PubChem BioAssay data set” (2004).
Activity calls are given as the source filed them.

What was measured:
[1] = molecular target: T1, High affinity choline transporter 1 (Homo sapiens, UniProt Q9GZV3); assay: human choline transporter blockers, potency – cell-based, 5-point CRC, membrane potential dye, dose response (AID 504840); format: functional
T1 sequence (Q9GZV3 whole entry): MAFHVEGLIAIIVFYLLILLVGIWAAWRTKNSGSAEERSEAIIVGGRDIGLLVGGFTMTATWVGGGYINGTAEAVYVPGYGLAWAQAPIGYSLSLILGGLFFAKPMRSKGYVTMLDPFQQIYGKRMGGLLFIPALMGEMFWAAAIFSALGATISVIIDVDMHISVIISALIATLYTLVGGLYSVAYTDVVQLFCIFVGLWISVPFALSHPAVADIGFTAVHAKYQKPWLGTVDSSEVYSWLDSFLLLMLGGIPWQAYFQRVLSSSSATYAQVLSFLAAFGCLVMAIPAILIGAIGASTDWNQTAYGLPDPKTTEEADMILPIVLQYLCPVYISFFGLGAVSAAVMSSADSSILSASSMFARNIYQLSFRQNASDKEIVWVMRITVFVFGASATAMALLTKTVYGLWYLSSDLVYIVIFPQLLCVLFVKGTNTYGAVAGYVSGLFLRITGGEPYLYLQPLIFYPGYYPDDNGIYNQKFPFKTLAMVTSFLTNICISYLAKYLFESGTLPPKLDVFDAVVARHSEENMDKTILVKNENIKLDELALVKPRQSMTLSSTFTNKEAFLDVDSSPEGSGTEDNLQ

[2] = system: Streptococcus sp. 'group A'; assay: Streptococcus pyogenes SK(-)GAS viability under kanamycin – luminescence, BacTiterGlo, confirmation, counter-screen for streptokinase expression inhibitor project, dose response (AID 1900); format: functional, organism-based
[3] = blockers of CRF-binding protein–CRF-R2 complex – cell-based, uHTS hits, 384-well, dose response (AID 651639); format: functional, Homo sapiens; conditions: read-out: IC50_Mean
[4] = molecular target: T2, Corticotropin-releasing factor receptor 2/Corticotropin-releasing factor-binding protein (Homo sapiens, UniProt P24387+Q13324); assay: activators of CRF receptor 2 with binding protein – uHTS hits, confirmation (AID 602473); format: functional; conditions: read-out: EC50_Mean
T2 sequence (Q13324 whole entry): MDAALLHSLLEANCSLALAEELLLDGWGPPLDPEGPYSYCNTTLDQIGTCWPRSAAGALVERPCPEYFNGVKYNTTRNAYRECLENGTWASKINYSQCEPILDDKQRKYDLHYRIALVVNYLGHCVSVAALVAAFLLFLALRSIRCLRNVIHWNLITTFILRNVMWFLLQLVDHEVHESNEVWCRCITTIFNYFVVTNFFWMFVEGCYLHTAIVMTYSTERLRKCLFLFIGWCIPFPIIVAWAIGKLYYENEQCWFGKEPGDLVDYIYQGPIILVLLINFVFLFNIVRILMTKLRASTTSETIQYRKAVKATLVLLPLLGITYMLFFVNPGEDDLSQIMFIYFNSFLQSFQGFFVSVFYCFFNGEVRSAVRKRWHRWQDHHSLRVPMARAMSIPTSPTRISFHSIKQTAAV
T2 sequence (P24387 whole entry): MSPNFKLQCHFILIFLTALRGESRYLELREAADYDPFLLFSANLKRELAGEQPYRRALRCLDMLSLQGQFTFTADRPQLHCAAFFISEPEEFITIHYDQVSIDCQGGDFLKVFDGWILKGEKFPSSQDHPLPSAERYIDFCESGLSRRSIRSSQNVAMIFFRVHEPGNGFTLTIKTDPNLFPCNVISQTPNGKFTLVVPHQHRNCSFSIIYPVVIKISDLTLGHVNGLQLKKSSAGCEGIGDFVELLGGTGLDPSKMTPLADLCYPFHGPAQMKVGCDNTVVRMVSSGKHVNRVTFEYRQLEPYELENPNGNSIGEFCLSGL

[5] = molecular target: T3, Streptokinase A (Streptococcus pyogenes serotype M1, UniProt P10520); assay: viability-normalized secreted streptokinase activity reduction – plasminogen activation absorbance, OD405, dose response (AID 1914); format: functional, Streptococcus pyogenes M1 GAS;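 also: secreted streptokinase activity via plasminogen activation per viability signal from cell pellet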
T3 sequence (P10520 whole entry): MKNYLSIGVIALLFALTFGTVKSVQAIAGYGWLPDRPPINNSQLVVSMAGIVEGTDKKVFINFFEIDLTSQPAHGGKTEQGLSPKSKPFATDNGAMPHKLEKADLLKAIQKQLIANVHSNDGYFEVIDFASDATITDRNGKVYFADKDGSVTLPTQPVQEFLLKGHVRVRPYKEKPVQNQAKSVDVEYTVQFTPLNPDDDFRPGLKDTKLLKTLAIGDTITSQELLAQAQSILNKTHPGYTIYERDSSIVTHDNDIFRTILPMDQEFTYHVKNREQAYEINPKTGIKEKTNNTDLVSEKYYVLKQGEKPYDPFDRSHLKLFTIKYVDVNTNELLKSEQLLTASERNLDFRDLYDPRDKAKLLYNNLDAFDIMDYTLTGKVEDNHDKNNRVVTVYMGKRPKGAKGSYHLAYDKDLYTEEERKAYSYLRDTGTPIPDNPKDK

[6] = molecular target: T2, Corticotropin-releasing factor receptor 2/Corticotropin-releasing factor-binding protein; assay: Dose Response confirmation of uHTS hits for small molecule antagonists of the CRF-binding protein and CRF-R2 receptor complex.; format: functional; conditions: read-out: IC50_Mean
[7] = system: Streptococcus; assay: GAS UMAA2166 growth inhibition – luminescence, BacTiterGlo, counter-screen for streptokinase expression inhibitor project, dose response (AID 1915); format: functional, organism-based;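 also: potency for reduction of bacterial viability or growth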
[8] = molecular target: FAD-linked sulfhydryl oxidase ALR (Homo sapiens, UniProt P55789); assay: ALR-catalysed DTT oxidation blockers – biochemical, H2O2 detection, luminescence, cherry-pick, dose response (AID 493248)
[9] = molecular target: T4, Short transient receptor potential channel 4 (Mus musculus, UniProt Q9QUQ5); assay: calcium entry via TRPC4 opening agents – cell-based, HEK293 TRPC4/mu-opioid, Fluo-4 calcium, dose response (AID 434937); format: functional
T4 sequence (Q9QUQ5 whole entry): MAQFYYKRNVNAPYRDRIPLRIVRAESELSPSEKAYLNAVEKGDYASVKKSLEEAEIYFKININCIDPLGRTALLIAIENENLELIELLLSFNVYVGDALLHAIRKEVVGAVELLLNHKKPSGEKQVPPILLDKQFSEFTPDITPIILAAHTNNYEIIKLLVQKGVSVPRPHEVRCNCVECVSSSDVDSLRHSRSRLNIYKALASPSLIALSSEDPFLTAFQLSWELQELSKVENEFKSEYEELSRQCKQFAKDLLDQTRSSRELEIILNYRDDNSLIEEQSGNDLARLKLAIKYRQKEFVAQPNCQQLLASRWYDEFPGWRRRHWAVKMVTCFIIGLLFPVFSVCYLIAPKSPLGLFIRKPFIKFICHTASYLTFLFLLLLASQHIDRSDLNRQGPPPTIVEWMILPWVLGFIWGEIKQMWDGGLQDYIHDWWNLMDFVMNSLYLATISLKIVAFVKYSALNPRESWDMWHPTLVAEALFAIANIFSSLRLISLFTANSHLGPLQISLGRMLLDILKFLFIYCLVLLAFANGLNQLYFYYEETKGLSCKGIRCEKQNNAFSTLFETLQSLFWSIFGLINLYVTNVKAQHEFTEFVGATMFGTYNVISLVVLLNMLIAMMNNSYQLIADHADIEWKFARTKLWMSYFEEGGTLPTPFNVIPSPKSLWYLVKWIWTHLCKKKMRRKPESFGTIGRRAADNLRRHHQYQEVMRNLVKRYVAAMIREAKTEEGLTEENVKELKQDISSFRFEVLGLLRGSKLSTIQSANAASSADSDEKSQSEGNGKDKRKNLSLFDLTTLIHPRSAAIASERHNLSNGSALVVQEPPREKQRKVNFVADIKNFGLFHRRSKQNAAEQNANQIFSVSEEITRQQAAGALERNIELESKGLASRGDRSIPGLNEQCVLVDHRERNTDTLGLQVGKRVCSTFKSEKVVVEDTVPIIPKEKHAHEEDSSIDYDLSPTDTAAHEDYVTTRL

FAD-linked sulfhydryl oxidase ALR, sequence (P55789 whole entry): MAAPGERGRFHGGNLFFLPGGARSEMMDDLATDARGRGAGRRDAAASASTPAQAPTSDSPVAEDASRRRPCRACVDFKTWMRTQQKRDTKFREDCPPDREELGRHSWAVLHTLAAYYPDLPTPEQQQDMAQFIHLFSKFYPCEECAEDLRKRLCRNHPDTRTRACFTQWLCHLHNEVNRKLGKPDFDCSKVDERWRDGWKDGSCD

COc1cccc(/C=C2\SC(=S)N(NC(=O)c3ccncc3)C2=O)c1
IC50 [1]: 12.6 µM (active)

Cc1ccc(NC(=O)c2ccc(CN3CC(=O)N4CCCCC4C3=O)cc2)c(C)c1 (stereo unspecified)
IC50 [1]: 4.47 µM (active)

Oc1cc2ccccc2cc1-c1nnc(S)o1
EC50 [2]: 10.3 µM (active)
IC50 [3]: 13.4 µM (active)
EC50 [4]: > 53 µM (inactive)
EC50 [5]: 23.5 µM (active)
IC50 [6]: 10.5 µM (active)
EC50 [7]: > 150 µM (not active)
AC50 [8]: 0.301 µM (active)

CC1CC(C)CN(CCCNC(=O)c2nn(C)c3c2CS(=O)(=O)c2ccccc2-3)C1 (stereo unspecified)
EC50 [9]: 0.237 µM (active)

COc1ccc(-n2c3c(cc(C(=O)NNc4ccccc4)c2=O)C(=O)CC(C)(C)C3)cc1
EC50 [9]: 1.06 µM (active)
